Data as given in patent US6914045B2, “Glycopeptide antibiotics” (Wyeth Holdings Corporation, priority 2001, dated 2005).
Converted amounts (≈) assume the structure as drawn.

What was measured:
[1] = test system: Enterococcus sp.; experiment: in vitro antibacterial evaluation, MIC by broth dilution; assay type: cell-based; settings: broth dilution, 18 hours at 35° C.
How it was run: (§1)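 MIC = lowest antibiotic concentration preventing visible growth; inoculum 5×10^5 CFU/mL; drug range 64-0.06 μg/mL; Muller-Hinton II […]; NCCLS M7-A2 guidance.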

[2] = test system: Staphylococcus sp.; experiment: as above; assay type: cell-based; settings: broth dilution, 18 hours at 35° C.; for MIC Staphylococcus aureus (ATCC 29213): strain ATCC 29213; for MIC Staphylococcus aureus (GC 1131): strain GC 1131; for MIC Staphylococcus aureus (GC 3051): strain GC 3051; for MIC Staphylococcus aureus (GC 3053): strain GC 3053; for MIC Staphylococcus aureus (GC 4541): strain GC 4541; for MIC Staphylococcus aureus (GC 4542): strain GC 4542; for MIC Staphylococcus aureus-SMITH (GC 4543): strain GC 4543; for MIC Staphylococcus aureus (GC 4544): strain GC 4544; for MIC Staphylococcus aureus (GC 4545): strain GC 4545; for MIC Staphylococcus haemolyticus (GC 4546): strain GC 4546; for MIC Coagulase Negative Staphylococcus (GC 4547): strain GC 4547; for MIC Coagulase Negative Staphylococcus (GC 4548): strain GC 4548; for MIC Coagulase Negative Staphylococcus (GC 4549): strain GC 4549; for MIC Coagulase Negative Staphylococcus (GC 4551): strain GC 4551; for MIC Coagulase Negative Staphylococcus (GC 6257): strain GC 6257
How it was run: as §1

[3] = test system: Streptococcus sp.; experiment: as above; assay type: cell-based; settings: broth dilution, 18 hours at 35° C.
How it was run: as §1

[4] = anatomic pathology (histopathology of heart and kidney) in mice; assay type: in vivo; settings: CD-1 mice, 20 mg/kg intravenously daily for 9 days, necropsy day 10, microscopic histopathology
Description: Samples of tissues from necropsied mice were formalin-fixed, paraffin-embedded, sectioned, stained with hematoxylin and eosin, and examined microscopically. Histopathologic findings were recorded. These findings were subjectively graded on a scale corresponding to slight, mild, moderate, marked and severe as compared to untreated controls.

[5] = test system: Escherichia coli; experiment: in vitro antibacterial evaluation, MIC by broth dilution; assay type: cell-based; settings: 18 hours at 35° C.
How it was run: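 Broth dilution MIC per NCCLS M7-A2 in Mueller-Hinton II medium, inoculum 5×10^5 CFU/mL, antibiotic range 64-0.06 μg/mL. MIC taken as lowest concentration inhibiting growth.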

[6] = Enterococcus faecalis (GC 4553)

Structure (SMILES): CC(c1ccccc1)C1NC(=O)CNC(=O)C(CO)NC(=O)C(C(O)C2CN(Cc3ccc(C(=O)O)cc3)C(=N)N2C2OC(CO)C(O)C(O)C2O)NC(=O)C(C(O)C2CNC(=N)N2)NC(=O)C(Cc2ccc(OC3OC(CO)C(OC4OC(CO)C(O)C(O)C4O)C(O)C3O)cc2)NC1=O (stereo not drawn) [Example 69, Cyclo[glycyl-β-methylphenylalanyl-O-(4-O-hexopyranosylhexopyranosyl)tyrosyl-3-(2-iminoimidazolidin-4-yl)seryl-3-[1-(4-carboxybenzyl)-2-imino-3-hexopyranosylimidazolidin-4-yl]-serylseryl]]
- MIC Enterococcus avium (GC 4558) ([1]; Enterococcus avium (GC 4558)): 128 mg/L (≈ 89.5 µM)
- MIC Enterococcus faecalis (ATCC 29212) ([1]; Enterococcus faecalis (ATCC 29212)): >128 mg/L
- MIC Enterococcus faecalis (GC 4552) ([1]; Enterococcus faecalis (GC 4552)): >128 mg/L
- MIC Enterococcus faecalis (GC 4553) [1, 6]: >128 mg/L
- MIC Enterococcus faecalis (GC 4554) ([1]; Enterococcus faecalis (GC 4554)): >128 mg/L
- MIC Enterococcus faecalis (GC 6189) ([1]; Enterococcus faecalis (GC 6189)): >128 mg/L
- MIC Enterococcus faecium (GC 2243) ([1]; Enterococcus faecium (GC 2243)): >128 mg/L
- MIC Enterococcus faecium (GC 4556) ([1]; Enterococcus faecium (GC 4556)): >128 mg/L
- MIC Enterococcus faecium (GC 4557) ([1]; Enterococcus faecium (GC 4557)): 128 mg/L (≈ 89.5 µM)
- MIC Enterococcus avium (GC 4558) [1]: 128 mg/L (≈ 89.5 µM)
- MIC Enterococcus faecalis (ATCC 29212) [1]: >128 mg/L
- MIC Enterococcus faecalis (GC 2242) [1]: >128 mg/L
- MIC Enterococcus faecalis (GC 2691) [1]: >128 mg/L
- MIC Enterococcus faecalis (GC 3059) [1]: >128 mg/L
- MIC Enterococcus faecalis (GC 4552) [1]: >128 mg/L
- MIC Enterococcus faecalis (GC 4553) [1]: >128 mg/L
- MIC Enterococcus faecalis (GC 4554) [1]: >128 mg/L
- MIC Enterococcus faecalis (GC 6189) [1]: >128 mg/L
- MIC Enterococcus faecium (GC 2243) [1]: >128 mg/L
- MIC Enterococcus faecium (GC 4556) [1]: >128 mg/L
- MIC Enterococcus faecium (GC 4557) [1]: 128 mg/L (≈ 89.5 µM)
- MIC Enterococcus faecalis (GC 2242) ([1]; strain GC 2242): >128 mg/L
- MIC Enterococcus faecalis (GC 2691) ([1]; strain GC 2691): >128 mg/L
- MIC Enterococcus faecalis (GC 3059) ([1]; strain GC 3059): >128 mg/L
- MIC Staphylococcus aureus (ATCC 29213) [2]: >128 mg/L
- MIC Staphylococcus aureus (GC 1131) [2]: >128 mg/L
- MIC Staphylococcus aureus (GC 3051) [2]: >128 mg/L
- MIC Staphylococcus aureus (GC 3053) [2]: >128 mg/L
- MIC Staphylococcus aureus (GC 4541) [2]: >128 mg/L
- MIC Staphylococcus aureus (GC 4542) [2]: >128 mg/L
- MIC Staphylococcus aureus-SMITH (GC 4543) [2]: >128 mg/L
- MIC Staphylococcus aureus (GC 4544) [2]: >128 mg/L
- MIC Staphylococcus aureus (GC 4545) [2]: >128 mg/L
- MIC Staphylococcus haemolyticus (GC 4546) [2]: >128 mg/L
- MIC Coagulase Negative Staphylococcus (GC 4547) [2]: >128 mg/L
- MIC Coagulase Negative Staphylococcus (GC 4548) [2]: >128 mg/L
- MIC Coagulase Negative Staphylococcus (GC 4549) [2]: >128 mg/L
- MIC Coagulase Negative Staphylococcus (GC 4551) [2]: >128 mg/L
- MIC Coagulase Negative Staphylococcus (GC 6257) [2]: >128 mg/L
- MIC Streptococcus agalactiae (GC 4564) [3]: 128 mg/L (≈ 89.5 µM)
- MIC Streptococcus pneumoniae (ATCC 6301) [3]: 128 mg/L (≈ 89.5 µM)
- MIC Streptococcus pneumoniae (GC 1894) [3]: 128 mg/L (≈ 89.5 µM)
- MIC Streptococcus pneumoniae (GC 4565) [3]: 128 mg/L (≈ 89.5 µM)
- MIC Streptococcus pyogenes (GC 4563) [3]: >128 mg/L
- MIC Streptococcus pneumoniae (ATCC 6301) ([3]; strain ATCC 6301): 128 mg/L (≈ 89.5 µM)
- MIC Streptococcus pneumoniae (GC 1894) ([3]; strain GC 1894): 128 mg/L (≈ 89.5 µM)
- MIC Streptococcus pyogenes (GC 4563) ([3]; strain GC 4563): >128 mg/L
- MIC Streptococcus agalactiae (GC 4564) ([3]; strain GC 4564): 128 mg/L (≈ 89.5 µM)
- MIC Streptococcus pneumoniae (GC 4565) ([3]; strain GC 4565): 128 mg/L (≈ 89.5 µM)
- Anatomical Pathology (Day 10), Heart [4]: 0
- Anatomical Pathology (Day 10), Kidney [4]: 0
- MIC Escherichia coli (ATCC 25922) [5]: >128 mg/L
- MIC Escherichia coli (GC 4559) [5]: >128 mg/L
- MIC Escherichia coli (GC 4560) [5]: >128 mg/L

Structure (SMILES): CC(c1ccccc1)C1NC(=O)CNC(=O)C(CO)NC(=O)C(C(O)C2CNC(=NCc3ccccc3)N2C2OC(CO)C(O)C(O)C2O)NC(=O)C(C(O)C2CNC(=N)N2)NC(=O)C(Cc2ccc(OC3OC(CO)C(OC4OC5COC6(OC5C(O)C4O)C4CC5CC(C4)CC6C5)C(O)C3O)cc2)NC1=O (stereo not drawn) [Example 76, Cyclo[glycyl-β-methylphenylalanyl-O-[4-O-[4,6-O-(2-adamantylidene)hexopyranosyl]hexopyranosyl]tyrosyl-3-(2-iminoimidazolidin-4-yl)seryl-3-[2-(benzylimino)-3-hexopyranosylimidazolidin-4-yl]serylseryl]]
- MIC Enterococcus avium (GC 4558) ([1]; Enterococcus avium (GC 4558)): 2 to 8 mg/L
- MIC Enterococcus faecalis (GC 4553) [1, 6]: 4 to 8 mg/L
- MIC Enterococcus faecium (GC 2243) ([1]; Enterococcus faecium (GC 2243)): 2 to 8 mg/L
- MIC Enterococcus faecium (GC 4557) ([1]; Enterococcus faecium (GC 4557)): 1 to 2 mg/L
- MIC Enterococcus avium (GC 4558) [1]: 2 to 8 mg/L
- MIC Enterococcus faecalis (ATCC 29212) [1]: 4 to 16 mg/L
- MIC Enterococcus faecalis (GC 2242) [1]: 4 to 16 mg/L
- MIC Enterococcus faecalis (GC 2691) [1]: 4 to 16 mg/L
- MIC Enterococcus faecalis (GC 3059) [1]: 4 to 32 mg/L
- MIC Enterococcus faecalis (GC 4552) [1]: 4 to 16 mg/L
- MIC Enterococcus faecalis (GC 4553) [1]: 4 to 8 mg/L
- MIC Enterococcus faecalis (GC 4554) [1]: 4 to 32 mg/L
- MIC Enterococcus faecalis (GC 6189) [1]: 4 to 16 mg/L
- MIC Enterococcus faecium (GC 2243) [1]: 2 to 8 mg/L
- MIC Enterococcus faecium (GC 4556) [1]: 4 to 16 mg/L
- MIC Enterococcus faecium (GC 4557) [1]: 1 to 2 mg/L
- MIC Staphylococcus aureus (ATCC 29213) [2]: 2 to 8 mg/L
- MIC Staphylococcus aureus (GC 1131) [2]: 4 to 8 mg/L
- MIC Staphylococcus aureus (GC 3051) [2]: 2 to 8 mg/L
- MIC Staphylococcus aureus (GC 3053) [2]: 2 to 8 mg/L
- MIC Staphylococcus aureus (GC 4541) [2]: 2 to 4 mg/L
- MIC Staphylococcus aureus (GC 4542) [2]: 2 to 8 mg/L
- MIC Staphylococcus aureus-SMITH (GC 4543) [2]: 1 to 4 mg/L
- MIC Staphylococcus aureus (GC 4544) [2]: 4 to 8 mg/L
- MIC Staphylococcus aureus (GC 4545) [2]: 2 to 8 mg/L
- MIC Staphylococcus haemolyticus (GC 4546) [2]: 2 to 4 mg/L
- MIC Coagulase Negative Staphylococcus (GC 4547) [2]: 2 to 4 mg/L
- MIC Coagulase Negative Staphylococcus (GC 4548) [2]: 2 to 4 mg/L
- MIC Coagulase Negative Staphylococcus (GC 4549) [2]: 2 to 4 mg/L
- MIC Coagulase Negative Staphylococcus (GC 4551) [2]: 2 to 8 mg/L
- MIC Coagulase Negative Staphylococcus (GC 6257) [2]: 0.5 to 2 mg/L
- MIC Streptococcus agalactiae (GC 4564) [3]: 0.25 to 2 mg/L
- MIC Streptococcus pneumoniae (ATCC 6301) [3]: <0.12 to 1 mg/L
- MIC Streptococcus pneumoniae (GC 1894) [3]: <0.06 to 0.25 mg/L
- MIC Streptococcus pneumoniae (GC 4565) [3]: 0.25 to 4 mg/L
- MIC Streptococcus pyogenes (GC 4563) [3]: 0.25 to 2 mg/L
- Anatomical Pathology (Day 10), Heart [4]: 0
- Anatomical Pathology (Day 10), Kidney [4]: ++
- MIC Escherichia coli (GC 4560) [5]: 2 to 4 mg/L
